The target in experiment [1] is K-Ras G13C (Homo sapiens (Human), UniProt P01116+P62937, G13C). Briefly: Ras-Raf (BRAF RBD) disruption / FRET / MOA assay, KRAS G13C. The class given is biochemical. Particulars: KRAS G13C; Ras-Raf disruption/FRET/MOA assay; read-out: IC50* KRAS G13C FRET data. In outline: (§1)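 TR-FRET read-out: a drop in ratio relative to DMSO wells marks disruption of the Ras:RAF complex, reported as IC50. Compounds (3-fold series, 10 points, top 30 μM final) incubated 3 h at 25° C before Eu-anti-His 10 nM and APC-anti-GST 50 nM, 1.5 h more.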
K-Ras G13C, sequence (P01116-2 other isoform, or with tags, fused parts or gaps G13C): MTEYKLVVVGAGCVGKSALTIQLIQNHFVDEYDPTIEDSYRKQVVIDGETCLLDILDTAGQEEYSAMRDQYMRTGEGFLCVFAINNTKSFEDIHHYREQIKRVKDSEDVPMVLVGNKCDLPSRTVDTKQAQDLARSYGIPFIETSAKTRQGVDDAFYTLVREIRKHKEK
K-Ras G13C, sequence (P62937 whole entry): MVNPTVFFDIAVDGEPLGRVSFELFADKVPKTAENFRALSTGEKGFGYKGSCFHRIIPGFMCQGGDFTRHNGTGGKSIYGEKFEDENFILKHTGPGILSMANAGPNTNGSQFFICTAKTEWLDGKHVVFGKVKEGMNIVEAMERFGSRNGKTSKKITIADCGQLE

Experiment [2] concerns the target NRAS G12C (Homo sapiens (Human), UniProt P01111+P62937, G12C). Briefly: Ras-Raf (BRAF RBD) disruption / FRET / MOA assay, NRAS G12C. Conditions: read-out: IC50* NRAS G12C FRET data. The class given is biochemical. In outline:
as §1

Experiment [3] concerns NCI-H358 (K-Ras G12C). The experiment in a line: CellTiter-Glo cell viability assay, NCI-H358. Particulars: Homo sapiens, NCI-H358, 120 h, NCI-H358, 5-day treatment; class symbols; read-out: Additional H358 Cell Viability assay data (K-Ras G12C, IC50). It is filed as cell-based, human. In outline:
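Compounds were dispensed directly onto K-Ras mutant cells and incubated until day 5, then plates were equilibrated to room temperature for about 30 minutes before CellTiter-Glo luminescence. Signals were normalized as (sample/average DMSO)*100 and fitted by four-parameter logistic fit.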

Experiment [4] relates to NCI-H358 cells (K-Ras G12C). The experiment in a line: Potency assay: pERK in NCI-H358 cells. It is filed as cell-based, human. Conditions: Homo sapiens, NCI-H358; H358 KRAS G12C; read-out: pERK EC50. In outline: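 Inhibition of cellular pERK after a 4 h treatment, detected by AlphaLISA or In-Cell Western. IC50 from a four-parameter concentration-response fit.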

The structures appear in SMILES notation.

NRAS G12C, sequence (P01111 whole entry G12C): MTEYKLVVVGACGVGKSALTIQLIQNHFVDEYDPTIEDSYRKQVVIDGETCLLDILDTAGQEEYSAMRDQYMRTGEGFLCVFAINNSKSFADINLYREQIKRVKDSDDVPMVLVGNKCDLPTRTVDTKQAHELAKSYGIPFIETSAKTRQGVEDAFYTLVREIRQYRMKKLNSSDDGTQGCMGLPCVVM
NRAS G12C, sequence (P62937 whole entry): as the sequence (P62937 whole entry) above

As for `CCn1c(-c2cccnc2[C@H](C)OC)c2c3cc(ccc31)-c1csc(n1)C[C@H](NC(=O)[C@H](C(C)C)N(C)C(=O)N(C)C1CN(C(=O)/C=C/C3CN(C)C3)C1)C(=O)N1CCC[C@H](N1)C(=O)OCC(C)(C)C2` (atropisomer, axis not shown) [Example A690], the concentration for half-maximal inhibition (IC50) in experiment [1], in experiment [2] and in experiment [3] was 100 to 1000 nM throughout. In addition, the EC50 – broadly, the concentration at which the effect is half-maximal – in experiment [4] is under 5000 nM.
Take `CO[C@@H](C)c1ncccc1-c1c2c3cc(ccc3n1CC(F)(F)F)-c1cccc(c1)C[C@H](NC(=O)[C@@H](COC1CN(C(=O)C#CC3(C)OCCO3)C1)C(C)C)C(=O)N1CCC[C@H](N1)C(=O)OCC(C)(C)C2` (atropisomer, axis not shown) [Example A703]: the IC50 (in general, the concentration needed to halve the response being measured) is 1000 to 10000 nM in experiment [1], 10 to 100 nM in experiment [2] and 10 to 100 nM in experiment [3]. In experiment [4], the half-maximal effective concentration (EC50) is under 5000 nM.
As for `C=CC(=O)N1CC(N(C)C(=O)N(C)[C@H](C(=O)N[C@H]2Cc3nc(cs3)-c3ccc4c(c3)c(c(-c3cccnc3[C@H](C)OC)n4CC(F)(F)F)CC(C)(C)COC(=O)[C@@H]3CCCN(N3)C2=O)C(C)C)C1` (atropisomer, axis not shown) [Example A711], the concentration for half-maximal inhibition (IC50) in experiment [1] was 10 to 100 nM; in experiment [2] it was under 10 nM; in experiment [3], under 10 nM. Further, the concentration giving a half-maximal response (EC50) in experiment [4] was under 5000 nM.
For `CCn1c(-c2cccnc2[C@H](C)OC)c2c3cc(ccc31)-c1csc(n1)C[C@H](NC(=O)[C@@H](COC1CN(C(=O)C#CC(C)(C)N(C)C)C1)C(C)C)C(=O)N1CCC[C@H](N1)C(=O)OCC(C)(C)C2` (atropisomer, axis not shown) [Example A721], the IC50 in experiment [1] was 1000 to 10000 nM; in experiment [2] it was under 10 nM; in experiment [3], under 10 nM. In experiment [4], the half-maximal effective concentration (EC50) was under 5000 nM.
`CO[C@@H](C)c1ncccc1-c1c2c3cc(ccc3n1CC(F)(F)F)-c1cccc(c1)C[C@H](NC(=O)[C@H](C(C)C)N(C)C(=O)[C@H]1CCN(C(=O)C#CC(C)(C)N(C)C)C1)C(=O)N1CCC[C@H](N1)C(=O)OCC(C)(C)C2` (atropisomer, axis not shown) [Example A727]: the concentration for half-maximal inhibition (IC50) in experiment [1] was 100 to 1000 nM; in experiment [2], under 10 nM; in experiment [3], under 10 nM. The EC50 in experiment [4] was under 5000 nM.
Turning to `CCn1c(-c2cccnc2)c2c3cc(ccc31)-c1csc(c1)C[C@H](NC(=O)[C@H](C(C)C)N(C)C(=O)[C@H]1CCN(C(=O)C#CCN3CCOCC3)C1)C(=O)N1CCC[C@H](N1)C(=O)OCC(C)(C)C2` [Example A205], the half-maximal inhibitory concentration (IC50) in experiment [1] is over 10000 nM; in experiment [2] it was 1000 to 10000 nM; in experiment [3] it was 100 to 1000 nM. The EC50 in experiment [4] was under 5000 nM.
The matching figures for `C=CC(=O)N1CC[C@H](C(=O)N(C)[C@H](C(=O)N[C@H]2C[C@H]3CN(CCO3)c3ccc4c(c3)c(c(-c3cccnc3COC)n4CC)CC(C)(C)COC(=O)[C@@H]3CCCN(N3)C2=O)C(C)C)C1` [Example A240]: over 10000 nM, 1000 to 10000 nM, over 1000 nM and under 5000 nM.
Regarding `CCn1c(-c2cccnc2[C@H](C)OC)c2c3cc(ccc31)N1CCO[C@@](C)(C[C@H](NC(=O)[C@H](C(C)C)N(C)C(=O)C3(F)CCN(C(=O)C#CC(C)(C)N(C)C)CC3)C(=O)N3CCC[C@H](N3)C(=O)OCC(C)(C)C2)C1` [Example A550], the results for the IC50 in experiment [1], in experiment [2] and in experiment [3] were 100 to 1000 nM, under 10 nM and under 10 nM, respectively. Further, the concentration for a half-maximal effect (EC50) in experiment [4] is under 5000 nM.
For `C=CC(=O)N1CCO[C@H]2CN(C(=O)N(C)[C@H](C(=O)N[C@H]3C[C@H]4CN(CCO4)c4ccc5c(c4)c(c(-c4cccnc4[C@H](C)OC)n5CC)CC(C)(C)COC(=O)[C@@H]4CCCN(N4)C3=O)C(C)C)C[C@H]21` [Example A562], the half-maximal inhibitory concentration (IC50) in experiment [1], in experiment [2] and in experiment [3] was 100 to 1000 nM throughout. For the same compound, the EC50 in experiment [4] is under 5000 nM.
